Assay [1] addresses T1, GR (Homo sapiens, UniProt P04150).
T1 sequence (P04150 1-777): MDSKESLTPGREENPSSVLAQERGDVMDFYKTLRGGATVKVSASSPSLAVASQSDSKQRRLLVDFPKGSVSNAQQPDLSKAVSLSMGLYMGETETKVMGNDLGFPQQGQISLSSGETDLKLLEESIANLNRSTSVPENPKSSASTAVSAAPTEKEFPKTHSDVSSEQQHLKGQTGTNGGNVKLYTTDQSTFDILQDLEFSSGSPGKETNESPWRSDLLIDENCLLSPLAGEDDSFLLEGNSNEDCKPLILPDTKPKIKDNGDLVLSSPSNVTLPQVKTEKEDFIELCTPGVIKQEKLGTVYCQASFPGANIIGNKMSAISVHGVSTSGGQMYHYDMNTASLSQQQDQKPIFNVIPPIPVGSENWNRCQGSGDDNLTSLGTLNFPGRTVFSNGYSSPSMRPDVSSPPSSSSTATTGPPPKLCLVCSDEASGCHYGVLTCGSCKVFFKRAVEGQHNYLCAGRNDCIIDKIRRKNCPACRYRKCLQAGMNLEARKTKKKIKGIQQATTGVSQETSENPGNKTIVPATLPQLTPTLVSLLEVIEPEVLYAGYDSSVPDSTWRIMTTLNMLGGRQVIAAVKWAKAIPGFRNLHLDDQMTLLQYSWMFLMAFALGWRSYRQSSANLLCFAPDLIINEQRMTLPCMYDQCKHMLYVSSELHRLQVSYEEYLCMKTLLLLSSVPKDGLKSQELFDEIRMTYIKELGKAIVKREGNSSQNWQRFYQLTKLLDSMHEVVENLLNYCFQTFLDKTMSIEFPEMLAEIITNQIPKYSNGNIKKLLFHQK
In words: Determination of induction activity, MMTV-Luc reporter in AD293 cells transfected with pRShGR (Table 3, FIG. 14). The note with it: for RLU / RLU/Renilla: single replicate wells; for activation at 0.01 µM / activation at 1 µM: AD293, 16 h, read-out: % to Dex induction; for fold induction at 0.01 µM / fold induction at 1 µM: AD293, read-out: Steroid Fold Induction; for % to Dex induction: relative to DEX 1000 nM. How it is done: (§1) AD293 cells were split at 20,000/well in 24 well plate one day before transfection. For transactivation, 100 ng pHHLuc (MMTV-Luc) plasmid, 0.1 ng pRShGR together with 5 ng phRGtkRenilla were transfected by X-tremeGENE 9 (Roche) into AD293 cells per well. For transreperssion, 10 ng AP1-Luc, 100 ng pRShGR and 5 ng phRGtkRenilla were transfected into AD293 cells per well. One day after transfection, cells were induced by different treatment (steroids or vehicle) 16 hrs overnight. Cells were harvest by 1× passive lysis buffer (Promega), luciferase activity was assayed by the Dual-Glo Luciferase system (Promega). Data were plotted by Luciferase Value/Renilla Value, as Relative Luciferase Unit (RLU).
AD293 cells were transfected with 0.1 ng pRShGR, 100 ng MMTV-Luc reporter, and 10 ng TK-Renilla internal control per well in a 24-well plate. One day after transfection, cells were induced by candidate compounds at a concentration of 10 nm or 1 um (see FIG. 14). Cells were harvested and luciferase activity was measured by Promega Dual Luciferacse kit.

Assay [2] deals with OVA-induced mouse asthma model. The assay can be described thus: OVA-induced mouse asthma model, lung function (RL) by FlexiVent. It is filed as in vivo. How it is done: A OVA-induced mouse asthma model was used to examine the anti-inflammatory effect of candidate compounds. 7-9 weeks old Balb/c mice were primarily immunized with OVA (ovalbumin). […] Related Lung (RL) function in response to acetylcholine was measured by the forced oscillation techniques with the FlexiVent system (SCIREQ).
To evaluate the effect of candidate compounds in repressing lung inflammation, a OVA-induced mouse asthma model was used (RL: relative lung function).

For assay [3], the target named is T1, GR. In words: Potency of candidate compounds in MMTV-luciferase reporter, full dose-response (FIG. 16A). The class given is cell-based. More on the design: expressed in transfected cells; host or cells: AD293. The note with it: doses 0.01 nM to 1000 nM. An excerpt:
To evaluate the potency of candidate compounds in a reporter system, an MMTV-luciferase reporter was used.
Background: In a reporter assay the amount or activity of a reporter protein is the signal.

The next assay deals with T2, GR Q642N (Homo sapiens, UniProt P04150, Q642N).
T2 construct: expressed in transfected cells; host or cells: AD293
T2 sequence (P04150 1-777 Q642N): T1 sequence (P04150 1-777) with Q642N
In words: Transactivation on MMTV-Luc in AD293 cells, GR Q642N mutant. The note with it: compared with wild type, up to saturation concentration. The class given is cell-based. How it is done:
as §1

The target of assay [4] is T1, GR. In words: GR transactivation, MMTV-driven luciferase reporter (MMTV-Luc) in AD293 cells. It is filed as cell-based. The note with it: transactivation assay, FIG. 3B. More on the design: expressed in transfected cells; host or cells: AD293. How it is done: as §1

Residue numbers refer to the chain shown, from its start. “And” between values parts separate entries of the source, which are not always exact repeats. Equal entries are not always repeated.

Regarding `C[C@@H]1CC2C3C=C(F)C4=Cc5c(cnn5-c5ccccc5)C[C@]4(C)[C@@]3(F)C(O)C[C@]2(C)[C@@]1(OC(=O)c1ccco1)C(=O)O` (stereo partly shown) [Compound 1], at GR [1] (10 nM), the “Mean (RLU/Renilla)” value came out at 0.119; the “induction activity compared to other candidate compounds and VSGC12” value is reported as “much lower induction activity”; the RLU was 21,720 and 17,200 and 24,320; the RLU/Renilla was 0.116 and 0.093 and 0.149. Further, at GR [1] (1000 nM), the “Mean (RLU/Renilla)” value is reported as 0.806; the RLU is 186,480 and 180,880 and 219,480; the RLU/Renilla is 0.642 and 0.818 and 0.959. Also, on GR [1], the activation at 0.01 µM was found to be 8.33%, the activation at 1 µM stood at 56.2%, the fold induction at 0.01 µM was determined as 2.42 and the fold induction at 1 µM came to 16.4.

Regarding `CCOC(=O)[C@@]1(OC(=O)c2ccco2)[C@H](C)CC2C3C=C(F)C4=Cc5c(cnn5-c5ccccc5)C[C@]4(C)[C@@]3(F)C(O)C[C@@]21C` (stereo partly shown) [Compound 2], at GR [1] (10 nM), the “Mean (RLU/Renilla)” value was 1.328; the RLU was 221,760 and 206,200 and 190,520; the RLU/Renilla was 1.316 and 1.430 and 1.238. Further, on GR [1] (1000 nM), the “Mean (RLU/Renilla)” value is recorded as 1.311; the RLU was 296,680 and 295,960 and 323,600; the RLU/Renilla was 1.365 and 1.267 and 1.302. At GR [1], the activation at 0.01 µM is 92.6%, the activation at 1 µM came to 91.5%, the fold induction at 0.01 µM worked out at 26.9 and the fold induction at 1 µM stood at 26.6.

For `CC(C)OC(=O)[C@@]1(OC(=O)c2ccco2)[C@H](C)CC2C3C=C(F)C4=Cc5c(cnn5-c5ccccc5)C[C@]4(C)[C@@]3(F)C(O)C[C@@]21C` (stereo partly shown) [Compound 3], at GR [1] (10 nM), the “Mean (RLU/Renilla)” value is recorded as 1.462; the RLU was 295,280 and 295,520 and 299,320; the RLU/Renilla is 1.505 and 1.300 and 1.580. Further, at GR [1] (1000 nM), the “Mean (RLU/Renilla)” value was 1.219; the RLU was 249,160 and 279,160 and 254,120; the RLU/Renilla was 1.143 and 1.332 and 1.181. Also, at GR [1], the activation at 0.01 µM is 102%, the activation at 1 µM was found to be 85%, the fold induction at 0.01 µM stood at 29.6 and the fold induction at 1 µM stood at 24.7.

On to `C[C@@H]1CC2C3C=C(F)C4=Cc5c(cnn5-c5ccccc5)C[C@]4(C)[C@@]3(F)C(O)C[C@]2(C)[C@@]1(OC(=O)c1ccco1)C(=O)OCF` (stereo partly shown) [Compound 4], for which, at GR [1] (10 nM), the “Mean (RLU/Renilla)” value amounted to 1.332; the RLU is 288,320 and 249,160 and 244,360; the RLU/Renilla is 1.518 and 1.258 and 1.222. Besides, on GR [1] (1000 nM), the “Mean (RLU/Renilla)” value amounted to 1.153; the RLU is 222,960 and 225,280 and 226,280; the RLU/Renilla is 1.178 and 1.134 and 1.147. For the same molecule, at GR [1], the activation at 0.01 µM worked out at 92.9%, the activation at 1 µM is 80.4%, the fold induction at 0.01 µM is 27 and the fold induction at 1 µM was 23.4. In addition, in assay [2] (0.125 mg/kg, FIG. 16B), the “repression of lung inflammation compared with VSGC12” value is “much higher repression activity”. Also, the “increase in potency over fluticasone furoate (FF)” value in assay [2] (FIG. 15) is 8 fold. Besides, the “potency in repressing lung inflammation compared with FF” value in assay [2] (FIG. 15, side by side comparison) is reported as “much more potent”. For the same molecule, the “potency compared with VSGC12 and DEX” value on GR [3] is listed as “higher potency”.

In the case of `C[C@@H]1CC2C3C=C(F)C4=Cc5c(cnn5-c5ccccc5)C[C@]4(C)[C@@]3(F)C(O)C[C@]2(C)[C@@]1(OC(=O)c1ccco1)C(=O)SCF` (stereo partly shown) [Compound 5], at GR [1] (10 nM), the “Mean (RLU/Renilla)” value was found to be 1.444; the RLU is 298,760 and 265,160 and 249,760; the RLU/Renilla was 1.485 and 1.433 and 1.413. Besides, on GR [1] (1000 nM), the “Mean (RLU/Renilla)” value was determined as 1.235; the RLU was 346,400 and 350,240 and 345,760; the RLU/Renilla was 1.108 and 1.227 and 1.371. Also, at GR [1], the activation at 0.01 µM worked out at 101%, the activation at 1 µM amounted to 86.1%, the fold induction at 0.01 µM stood at 29.3 and the fold induction at 1 µM amounted to 25.

On to `C[C@@H]1CC2C3C=C(F)C4=Cc5c(cnn5-c5ccccc5)C[C@]4(C)[C@@]3(F)C(O)C[C@]2(C)[C@@]1(OC(=O)c1ccco1)C(=O)OC(C)(C)C` (stereo partly shown) [Compound 6], for which, on GR [1] (10 nM), the “Mean (RLU/Renilla)” value worked out at 1.417; the RLU was 353,720 and 347,400 and 378,600; the RLU/Renilla is 1.291 and 1.356 and 1.605. Besides, at GR [1] (1000 nM), the “Mean (RLU/Renilla)” value is 1.614; the RLU was 385,840 and 290,120 and 330,680; the RLU/Renilla was 1.694 and 1.490 and 1.659. In addition, at GR [1], the activation at 0.01 µM is 98.8%, the activation at 1 µM amounted to 113%, the fold induction at 0.01 µM is 28.7 and the fold induction at 1 µM was 32.7.

As to `C[C@@H]1C[C@H]2[C@@H]3CCC4=CC(=O)C=C[C@]4(C)[C@@]3(F)[C@@H](O)C[C@]2(C)[C@@]1(O)C(=O)CO` [DEX, dexamethasone, reference compound], the “% to Dex induction” value worked out at 52.82% on GR [1] (10 nM) and 100% at GR [1] (1000 nM).

`CON(C)C(=O)[C@@]1(OC(=O)c2ccco2)[C@H](C)CC2C3C=C(F)C4=Cc5c(cnn5-c5ccccc5)C[C@]4(C)[C@@]3(F)C(O)C[C@@]21C` (stereo partly shown) [VSGC12, reference compound]: at GR [1] (10 nM), the “Mean (RLU/Renilla)” value is recorded as 1.402; the RLU was 316,240 and 298,600 and 289,480; the RLU/Renilla is 1.598 and 1.522 and 1.085. On GR [1] (1000 nM), the “Mean (RLU/Renilla)” value is reported as 1.682; the RLU is 331,400 and 309,120 and 312,400; the RLU/Renilla is 1.767 and 1.765 and 1.513. On GR [1], the activation at 0.01 µM is 97.8%, the activation at 1 µM worked out at 117%, the fold induction at 0.01 µM was found to be 28.4 and the fold induction at 1 µM is 34.1.

For `C[C@]12CCC(=O)C=C1CC[C@@H]1[C@@H]2[C@@H](O)C[C@@]2(C)[C@H]1CC[C@]2(O)C(=O)CO` [cortisol, Cortisol], the “full dose-response curve of Q642N” value on GR Q642N is “inactive”.

As to `C[C@]12C=CC(=O)C=C1CC[C@@H]1[C@@H]2[C@@H](O)C[C@@]2(C)[C@H]1CC[C@]2(O)C(=O)CO` [prednisolone], the “leftward shift of the cortisol dose-response curve” value on GR [4] is recorded as “about 5 fold”.
